From patent US20040209799A1, “JAK/STAT pathway inhibitors and the uses thereof” (priority 2000, published 2004)

How the values were obtained:
[1] = system: stromelysin-1 (MMP3) mRNA; assay: northern blot, IL-1β-induced mRNA in human articular chondrocytes: stromelysin-1; assay type: cell-based; conditions: 5 μM, 2 ng/ml rhIL-1β, 24 hours, free base or trifluoroacetic acid salt form
Method: (§1) Frozen human articular chondrocyte cell strain HC30-0198 (described in Example 1) was thawed, and cultured in monolayer in T150 tissue culture flasks (Corning Costar, Cambridge, Mass.) as described above to 1-5 days post-confluence. Test cultures were rinsed in PBS, and preincubated for 2 hours with 10 ml of serum-free DMEM containing 5 μM DBH (synthetic), in its free base or trifluoroacetic acid salt form. An additional 10 ml of serum-free DMEM containing 5 μM DBH, 4 ng/ml recombinant human interleukin-1β (rhIL-1β; final concentration of 2 ng/ml) (R&D Systems, Minneapolis, Minn.), and 2% antibiotic solution (final concentration of 1%), were then added for 24 hours.
(§2) Two control cultures were run in parallel: one without DBH (rhIL-1β alone), and another without DBH or rhIL-1β.
(§3) Total RNA was fixed to the membrane using a Stratalinker® 1800 UV Crosslinker (Stratagene, La Jolla, Calif.). […]
(§4) The blot was successively washed two times in 2×SSC/0.05% SDS (15 min/wash at room temperature), and two times in 0.1×SSC/0.1% SDS (30 minutes/wash at 65° C.). The blot was allowed to air dry, and the radioactive signal was visualized and quantified using a Fujifilm, BAS-1500 phosphorimager (Fuji, Stamford, Conn.). […]

[2] = system: collagenase 1 (MMP1) mRNA; assay: northern blot, IL-1β-induced mRNA in human articular chondrocytes: collagenase 1; assay type: cell-based; conditions: 5 μM, 2 ng/ml rhIL-1β, 24 hours, free base or trifluoroacetic acid salt form
Method: as §1, §2, §3, §4

[3] = system: cyclooxygenase II (COX2) mRNA; assay: northern blot, IL-1β-induced mRNA in human articular chondrocytes: COX2; assay type: cell-based; conditions: 5 μM, 2 ng/ml rhIL-1β, 24 hours, free base or trifluoroacetic acid salt form
Method: as §1, §2, §3, §4

[4] = system: NF-κB (p65) mRNA; assay: northern blot, IL-1β-induced mRNA in human articular chondrocytes: NF-κB; assay type: cell-based; conditions: 5 μM, 2 ng/ml rhIL-1β, 24 hours, free base or trifluoroacetic acid salt form
Method: as §1, §2, §3, §4

[5] = system: tumor necrosis factor-α (TNF-α) mRNA; assay: northern blot, IL-1β-induced mRNA in human articular chondrocytes: TNF-α; assay type: cell-based; conditions: 5 μM, 2 ng/ml rhIL-1β, 24 hours, free base or trifluoroacetic acid salt form
Method: as §1, §2, §3, §4

[6] = system: interleukin-6 (IL-6) mRNA; assay: northern blot, IL-1β-induced mRNA in human articular chondrocytes: IL-6; assay type: cell-based; conditions: 5 μM, 2 ng/ml rhIL-1β, 24 hours, free base or trifluoroacetic acid salt form
Method: as §1, §2, §3, §4

[7] = system: chondrocytes in culture and explants of articular cartilage; conditions: cited from earlier work

NC1=NC(=O)C(=C2CCNC(=O)c3[nH]ccc32)N1 [DBH, 4-(2-amino-4-oxo-2-imidazolin-5-ylidene)-4,5,6,7-tetrahydropyrrolo(2,3-c) azepine-8-one]
inhibit to various degrees: inhibition of IL-1β-induced upregulation of stromelysin (MMP3) mRNA [1] | inhibition of IL-1β-induced upregulation of collagenase 1 (MMP1) mRNA [2] | inhibition of IL-1β-induced upregulation of cyclooxygenase II (COX2) mRNA [3] | inhibition of IL-1β-induced upregulation of NF-κB (p65) mRNA [4] | inhibition of IL-1β-induced upregulation of tumor necrosis factor-α (TNF-α) mRNA [5] | inhibition of IL-1β-induced upregulation of interleukin-6 (IL-6) mRNA [6]
inhibit: inhibition of IL-1 induced degradation of glycosaminoglycan and extracellular matrix [7]
